Test results as given in patent US20250136581A1, “SUBSTITUTED TRIAZOLE DERIVATIVE, PREPARATION METHOD THEREFOR, PHARMACEUTICAL COMPOSITION THEREOF, AND USE THEREOF” (SHANGHAI SIMR BIOTECHNOLOGY CO., LTD., priority 2021, published 2025).
pKi: −log10 of the molar value. Read-outs that look alike come from different tables or passages of the source.

Assays:
[1] = target: human α5β3γ2 receptors (α5-GABAA receptor) (Homo sapiens (Human), UniProt P18507+P31644); test: 3H-flunitrazepam competition binding, human α5β3γ2 GABAA receptor; details: HEK293 cell membranes, 1 nM 3H-flunitrazepam; read-out: α5-GABAAR Ki
In short: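 Radioligand displacement of 1 nM 3H-flunitrazepam from membranes of HEK293 lines stably expressing the human subtypes, 1 h at room temperature, compound in 8-point 4-fold series. Bound label on GF/C filters counted by scintillation; Ki derived from fitted IC50, with flumazenil as low control.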

[2] = Rat pharmacokinetic experiment; assay type: in vivo; details: rat, po; for Kp: male, SD, brain / plasma, read-out: B/P (proportion of compounds entering the brain); for Cmax: plasma, male SD rats
Procedure: The maximum plasma concentration (Cmax) in the rat pharmacokinetic experiment was used to evaluate the absorption of the compounds in rat in vivo. The experimental compound was dissolved and then orally administered by gavage (p.o.) to male SD rats. The rats were fasted overnight before drug administration, and blood was collected via venipuncture at 0.25, 0.5, 1, 2, 4, and 7 hours post dose. Approximately 100 μL blood was collected for each sample; at the same time, the whole brain was taken and homogenized with 3 times the amount of PBS for analysis. The […] method was used to determine drug concentrations in plasma and brain tissue, and the proportion of compounds entering the brain (B/P) was calculated based on the AUC of the compound. Pharmacokinetic parameters were calculated using Phoenix WinNonlin 7.0. The administration vehicle was 5% CMC-Na aqueous solution.

[3] = target: α5-GABAA receptor (α5, β3, γ2 subunits) (Homo sapiens (Human), UniProt P18507+P31644); test: Whole cell patch clamp, inverse agonist efficacy in HEK293 cells expressing α5-GABAA receptor; assay type: cell-based; details: GABA 0.05 μM, −60 mV; for inhibition at 0.1 µM: HEK293, drug 100 nM, read-out: Compound inverse agonist efficacy %
In short: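 Compounds screened at 100 nM against current induced by 0.05 μM GABA in monoclonal HEK293 cells stably expressing α5β3γ2 GABAA receptors. Recording by whole-cell voltage clamp (−60 mV, pH 7.4 bath, CsCl pipette); efficacy calculated from leak-corrected currents before and after drug.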

[4] = target: human α2β3γ2 receptors (Homo sapiens (Human), UniProt P18507+P47869); test: 3H-flunitrazepam competition binding, human α2β3γ2 GABAA receptor; details: HEK293 cell membranes, 1 nM 3H-flunitrazepam; read-out: Ki α2
Procedure: (§1) The affinity of the compound to each subtype of GABAA receptor was determined by competing for the binding of ^3H-flunitrazepam to HEK293 cells stably expressing human α1β3γ2, α2β3γ2, α3β3γ2, and α5β3γ2 receptors.
(§2) The cells were suspended in 50 mM Tris-HCl buffer (pH=7.4), homogenized 10 times on ice with a homogenizer for 20 seconds, and centrifuged at 1000 g for 10 minutes at 4° C. The supernatant was collected, and the above steps were repeated. The supernatant was centrifuged at 4° C. (33800 g; Thermo, rotor: A27-8×50) for 60 minutes, and the precipitate was resuspended in Tris buffer (50 mM Tris-HCl, 10 mM MgCl2, 0.5 mM EDTA, 10% glycerol). Protein was measured (BCA method, Pierce), and 1 mL aliquots were prepared and stored at −80° C.
(§3) The radioligand competition binding assay was performed in a 200 μL system (96-well plate) containing 100 μL of cell membrane. The concentration of ^3H-flunitrazepam was 1 nM and the concentration of the test compound was in the range of […]. Flumazenil was used as a control. 1 μL of 2 mM flumazenil (final concentration […]) was added to the low signal control well (Low control, LC), and 1 μL of DMSO was added to the high signal control well (High control, HC). The final concentration of target membrane protein was […]. All test compound sample storage solutions were 10 mM. The working concentration of the samples was to dilute all the samples to 0.2 mM with DMSO, followed by 4-fold serial gradient dilutions for a total of 8 concentration gradients. The 96-well plate was sealed with a sealing film, and then incubated on a shaker at room temperature for 1 hour. At the same time, the GF/C filter plate was soaked in soaking buffer (0.3% PEI, stored at 4° C.) for at least 0.5 hours. After the binding incubation was completed, the cells were collected onto a GF/C filter plate using a cell harvester. The plate was washed four times with washing buffer (50 mM Tris-HCl, pH 7.4, stored at 4° C.). After drying in a 50° C. oven for 1 hour, the bottom of the dried GF/C filter plate was sealed. The residual radioactivity on the filter membrane was detected using liquid scintillation counting. 50 μL of scintillation fluid was added to each well, and the plate was sealed. The readings were taken using a Microbeta2. The inhibitory activity of the test sample on the binding of ^3H-flunitrazepam to GABAA receptor membrane proteins was calculated, and the IC50 of each test sample was calculated by dose-effect curve fitting (GraphPad Prism 5 software), and the Ki of the sample was calculated from the IC50, thus evaluating the binding ability of the sample to the various subtypes of GABAA receptors.

[5] = target: human α1β3γ2 receptors (Homo sapiens (Human), UniProt P14867+P18507); test: 3H-flunitrazepam competition binding, human α1β3γ2 GABAA receptor; details: HEK293 cell membranes, 1 nM 3H-flunitrazepam; read-out: Ki α1
Procedure: as §1, §2, §3

[6] = target: human α3β3γ2 receptors (Homo sapiens (Human), UniProt P18507+P34903); test: 3H-flunitrazepam competition binding, human α3β3γ2 GABAA receptor; details: HEK293 cell membranes, 1 nM 3H-flunitrazepam; read-out: Ki α3
Procedure: as §1, §2, §3

| SMILES | pKi [1] | Kp ([2]; 3 mg/kg) | Cmax ([2]; 3 mg/kg) [ng/mL] | inhibition at 0.1 µM [3] [%] | pKi [4] | Kp ([2]; 1 mg/kg) | Cmax ([2]; 1 mg/kg) [ng/mL] | pKi [5] | pKi [6] | Compound inverse agonist efficacy % ([3]; drug 100 nM) [%] |
| --- | --- | --- | --- | --- | --- | --- | --- | --- | --- | --- |
| Cc1nnn(-c2ccc(C(F)F)cc2)c1COc1ccc(N2CCN3CCNC(=O)[C@@H]3C2)cn1 [Example 56, (S)-8-(6-((1-(4-(Difluoromethyl)phenyl)-4-methyl-1H-1,2,3-triazol-5-yl)methoxy)pyridin-3-yl)octahydro-1H-pyrazino[1,2-a]pyrazin-1-one] | 8.10 | 0.0261 | 2050 | 53.4 | 6.48 |  |  |  |  |  |
| Cc1nnn(-c2ccc(C(F)F)cc2)c1COc1ccc(N2CCN(C)C(=O)C2)nn1 [Example 26, 4-(6-((1-(4-(Difluoromethyl)phenyl)-4-methyl-1H-1,2,3-triazol-5-yl)methoxy)pyridazin-3-yl)-1-methylpiperazin-2-one] | 8.88 |  |  | 50.3 | 7.34 | 0.0336 | 637 | 7.32 | 7.63 |  |
| Cc1nnn(-c2ccc(C(F)F)cc2)c1COc1ccc(N2CCNC(=O)C2)cn1 [Example 21, 4-(6-[(1-(4-(Difluoromethyl)phenyl)-4-methyl-1H-1,2,3-triazol-5-yl)methoxy]pyridin-3-yl)piperazin-2-one] | 8.91 |  |  | 49.3 | 7.38 | 0.045 | 576 | 7.43 | 7.66 |  |
| CCNC(=O)C1CN(c2ccc(OCc3c(C)nnn3-c3ccc(C(F)F)cc3)nn2)C1 [Example 43, 1-(6-[(1-(4-(Difluoromethyl)phenyl)-4-methyl-1H-1,2,3-triazol-5-yl)methoxy]pyridazin-3-yl)-N-ethylazetidine-3-carboxamide] | 8.35 |  |  | 52.2 | 7.14 |  |  | 6.83 | 7.73 |  |
| Cc1nnn(-c2ccc(C(F)F)cc2)c1COc1ccc(N2CC(=O)N3CCC[C@H]3C2)nn1 [Example 14, (S)-2-(6-((1-(4-(difluoromethyl)phenyl)-4-methyl-1H-1,2,3-triazol-5-yl)methoxy)pyridazin-3-yl)hexahydropyrrolo[1,2-a]pyrazin-4(1H)-one] | 8.91 | 0.0135 | 2700 | 45.7 |  |  |  |  |  |  |
| Cc1nnn(-c2ccc(C(F)F)cc2)c1COc1ccc(N2CCN3CCNC(=O)[C@@H]3C2)nn1 [Example 54, (S)-8-(6-((1-(4-(Difluoromethyl)phenyl)-4-methyl-1H-1,2,3-triazol-5-yl)methoxy)pyridazin-3-yl)hexahydro-2H-pyrazino[1,2-a]pyrazin-1(6H)-one] | 8.59 |  |  | 50.9 | 7.15 |  |  | 6.53 | 7.30 |  |

The next lines start with the values.

| pKi [1] | Kp ([2]; 3 mg/kg) | Cmax ([2]; 3 mg/kg) [ng/mL] | inhibition at 0.1 µM [3] [%] | pKi [4] | Kp ([2]; 1 mg/kg) | Cmax ([2]; 1 mg/kg) [ng/mL] | pKi [5] | pKi [6] | Compound inverse agonist efficacy % ([3]; drug 100 nM) [%] | SMILES |
| --- | --- | --- | --- | --- | --- | --- | --- | --- | --- | --- |
| 8.92 | 0.0099 | 2670 | 51.2 | 7.19 |  |  | 6.85 | 7.35 |  | O=C1NCCN2CCN(c3ccc(OCc4c(Cl)nnn4-c4ccc(C(F)F)cc4)nn3)C[C@@H]12 [Example 181, (S)-8-(6-((4-Chloro-1-(4-(difluoromethyl)phenyl)-1H-1,2,3-triazol-5-yl)methoxy)pyridazin-3-yl)hexahydro-2H-pyrazino[1,2-a]pyrazin-1(6H)-one] |
| 8.69 |  |  | 43.7 | 7.34 |  |  | 6.61 | 7.55 |  | N#Cc1nnn(-c2ccc(C(F)F)cc2)c1COc1ccc(N2CCNC(=O)C2)nn1 [Example 78, 1-(4-(Difluoromethyl)phenyl)-5-(((6-(3-oxopiperazin-1-yl)pyridazin-3-yl)oxy)methyl)-1H-1,2,3-triazole-4-carbonitrile] |
| 9.09 |  |  | 54.8 | 7.64 |  |  | 6.79 | 7.80 |  | O=C1CN(c2ccc(OCc3c(CO)nnn3-c3ccc(C(F)F)cc3)nn2)CCN1 [Example 80, 4-(6-((1-(4-(Difluoromethyl)phenyl)-4-(hydroxymethyl)-1H-1,2,3-triazol-5-yl)methoxy)pyridazin-3-yl)piperazin-2-one] |
| 9.08 |  |  | 50.5 | 7.77 |  |  | 7.24 | 7.85 |  | Cc1nnn(-c2ccc(C(F)F)cc2)c1COc1ccc(N2CC(=O)N3CCNCC3C2)nn1 (stereo not drawn) [Example 68, 2-(6-((1-(4-(Difluoromethyl)phenyl)-4-methyl-1H-1,2,3-triazol-5-yl)methoxy)pyridazin-3-yl)hexahydro-1H-pyrazino[1,2-a]pyrazin-4-(6H)-one] |
| 8.75 | 0.0095 | 3890 | 49.9 |  |  |  |  |  |  | Cc1nnn(-c2ccc(C(F)F)cc2)c1COc1ccc(N2CC(C(=O)N3CCOCC3)C2)nn1 [Example 104, (1-(6-((1-(4-(Difluoromethyl)phenyl)-4-methyl-1H-1,2,3-triazol-5-yl)methoxy)pyridazin-3-yl)azetidin-3-yl)(morpholino)methanone] |
| 8.90 |  |  | 49.6 | 7.40 |  |  | 7.28 | 7.99 |  | Cc1nnn(-c2ccc(C(F)F)cc2)c1COc1ccc(N2CC(C(=O)Nc3cnn(C)c3)C2)nn1 [Example 103, 1-(6-((1-(4-(Difluoromethyl)phenyl)-4-methyl-1H-1,2,3-triazol-5-yl)methoxy)pyridazin-3-yl)-N-(1-methyl-1H-pyrazol-4-yl)azetidine-3-carboxamide] |
| 8.64 |  |  |  | 7.15 |  |  | 6.80 | 7.30 | −68.71 | Cc1nnn(-c2ccc(C(F)F)cc2)c1COc1ccc(N2CCN3CC(C4CC4)NC(=O)[C@@H]3C2)nn1 (single isomer, unassigned) [Example 204] |
| 8.78 |  |  | 48.4 | 7.30 |  |  | 7.19 | 7.64 |  | Cc1nnn(-c2ccc(C(F)F)cc2)c1COc1ccc(N2C[C@H]3C[C@@H]2C(=O)N3)nn1 [Example 116, (1R,4R)-5-(6-((1-(4-(Difluoromethyl)phenyl)-4-methyl-1H-1,2,3-triazol-5-yl)methoxy)pyridazin-3-yl)-2,5-diazabicyclo[2.2.1]heptan-3-one] |
| 8.78 | 0.0208 | 1780 | 52.2 |  |  |  |  |  |  | Cc1nnn(-c2ccc(C(F)F)cc2)c1COc1ccc(N2CCN(C3CC3)C(=O)C2)nn1 [Example 108, 1-Cyclopropyl-4-(6-((1-(4-(difluoromethyl)phenyl)-4-methyl-1H-1,2,3-triazol-5-yl)methoxy)pyridazin-3-yl)piperazin-2-one] |
